Assay [1] deals with T1, Cbl-b (Homo sapiens, UniProt Q13191). Description: Cbl-b inhibition assay (Cbl-b activity assay, FRET, Biological Example 1; 100 mM NaCl, 60 nM Src kinase). To be noted: upper bound stated in text lists; read-out: IC50 values in the Cbl-b inhibition assay of Biological Example 1. It counts as biochemical. The text has this:
FIG. 1A and FIG. 1B show a series of diagrams depicting the activity assay utilized to assay inhibition of Cbl-b activity by a Cbl-b inhibitor. FIG. 1A: The activity assay mixture comprises an N-terminal biotinylated Avi-tagged Cbl-b, an E2 enzyme (i.e., UbcH5B) irreversibly conjugated to Bodipy-Fluorescein tagged ubiquitin (i.e., UbcH5B-Ub), a Src kinase, streptavidin-terbium, and assay buffer. Phosphorylation of Cbl-b by the Src kinase allows UbcH5B-Ub to bind to Cbl-b and bring the Bodipy-Fluorescein tagged ubiquitin in proximity to the streptavidin-terbium bound to the N-terminal biotinylated Avi-tagged Cbl-b. […] FIG. 1B: In the presence of a Cbl-b inhibitor, such as one described herein, Cbl-b is unable to bind UbcH5B-Ub. The lack of a FRET signal indicates Cbl-b is inhibited by the Cbl-b inhibitor. Ub indicates ubiquitin; N-Avi indicates biotinylated Avi-tag at the N-terminus of Cbl-b; inhibitor indicates Cbl-b inhibitor.
The lack of a FRET signal indicates Cbl-b is inhibited by the Cbl-b inhibitor. In FIG. 1A and FIG. 1B, Ub indicates ubiquitin; N-Avi indicates biotinylated Avi-tag at the N-terminus of Cbl-b; and inhibitor indicates Cbl-b inhibitor.

For assay [2], the target named is T1, Cbl-b. Description: Cbl-b activity assay (Cbl-b inhibition assay), TR-FRET of Cbl-b interaction with UbcH5B-Ub. As to conditions: assay buffer with 100 mM NaCl, 60 nM Src kinase; read-out: Cbl-b activity IC50. Type of assay: biochemical. How it is done:
The ability of candidate compounds to inhibit Cbl-b activity was measured by monitoring the interaction of Cbl-b with UbcH5B-Ub in the presence of the candidate compound.
Fluorescently labeled UbcH5B-Ub was prepared by conjugating ubiquitin (Ub), labeled at its N-terminus with Bodipy-Fluorescein, to UbcH5B, an E2 enzyme, harboring a cysteine to lysine mutation at position 85. […] After incubation in the presence of the candidate compound, the plate was incubated for an additional 1.5 hours in the presence of 60 nM Src kinase with 1 mM ATP and 5 mM MgCl2 (final concentrations). […] The plate was incubated for 1 hour.
Column marked with an asterisk (*) were tested as described above with assay buffer containing 50 mM NaCl instead of 100 mM NaCl and 30 nM Src kinase instead of 60 nM Src kinase. The resulting data for the Cbl-b binding assay was solvent corrected and double referenced prior to analysis. All data were globally fit to a steady-state affinity and kinetic binding model where applicable). Fit parameters were derived from a 1:1 binding model using the Biacore T200 Evaluation Software V2.0 (GE Healthcare) (Table 2).

Molecules are shown by their SMILES.

T1 sequence (Q13191 36-427): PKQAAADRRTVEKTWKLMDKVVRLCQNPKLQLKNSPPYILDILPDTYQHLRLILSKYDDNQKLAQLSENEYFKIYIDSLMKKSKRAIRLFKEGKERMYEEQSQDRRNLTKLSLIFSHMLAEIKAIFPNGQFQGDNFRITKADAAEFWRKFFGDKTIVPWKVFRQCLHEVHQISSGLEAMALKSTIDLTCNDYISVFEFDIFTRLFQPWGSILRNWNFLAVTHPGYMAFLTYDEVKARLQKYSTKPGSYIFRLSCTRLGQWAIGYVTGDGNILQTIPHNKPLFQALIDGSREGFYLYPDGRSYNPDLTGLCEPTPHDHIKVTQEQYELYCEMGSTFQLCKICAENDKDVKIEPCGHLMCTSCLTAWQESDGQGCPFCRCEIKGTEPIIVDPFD

The term IC50 denotes the concentration needed to halve the response being measured. As for `Cc1conc1C[C@H](C)c1cccc(NC(=O)c2ccnc(C(F)(F)F)n2)c1` [Compound 213b, (S)-N-(3-(1-(4-methylisoxazol-3-yl)propan-2-yl)phenyl)-2-(trifluoromethyl)pyrimidine-4-carboxamide], the IC50 in assay [1] is at most 10 µM; in assay [2], 3 to 10 µM.
On the same counts, the results for `Cc1ccn(CC(C)c2cccc(NC(=O)c3cccc(C(F)(F)F)n3)c2)n1` (stereo not drawn) [Compound 216, N-(3-(1-(3-methyl-1H-pyrazol-1-yl)propan-2-yl)phenyl)-6-(trifluoromethyl)picolinamide] are at most 10 µM and 3 to 10 µM.
`Cc1nnnn1CC(C)c1cccc(NC(=O)c2cccc(C(F)(F)F)n2)c1` (stereo not drawn) [Compound 217, N-[3-[1-methyl-2-(5-methyltetrazol-1-yl)ethyl]phenyl]-6-(trifluoromethyl)pyridine-2-carboxamide]: the figures for the IC50 in assay [1] and in assay [2] were at most 10 µM and above 10 µM, respectively.
Take `Cc1cnnn1CC(C)c1cccc(NC(=O)c2cccc(C(F)(F)F)n2)c1` (stereo not drawn) [Compound 218, N-[3-[1-methyl-2-(5-methyltriazol-1-yl)ethyl]phenyl]-6-(trifluoromethyl)pyridine-2-carboxamide]: the IC50 in assay [1] is at most 0.5 µM; in assay [2], 0.301 to 1 µM.
For `CC(Cn1[nH]cnc1=O)c1cccc(NC(=O)c2cccc(C(F)(F)F)n2)c1` (stereo not drawn) [Compound 219, N-[3-[1-methyl-2-(3-oxo-1H-1,2,4-triazol-2-yl)ethyl]phenyl]-6-(trifluoromethyl)pyridine-2-carboxamide] the same measures were at most 10 µM and 3 to 10 µM.
For `C[C@H](Cc1nncn1C)c1cccc(NC(=O)c2cc(C(=O)NC3CCOC3)ccn2)c1` (stereo partly drawn) [Compound 228, N2-(3-((R)-1-(4-methyl-4H-1,2,4-triazol-3-yl)propan-2-yl)phenyl)-N4-(tetrahydrofuran-3-yl)pyridine-2,4-dicarboxamide], the IC50 in assay [1] was at most 10 µM; in assay [2] it was 3 to 10 µM.
For `C[C@H](Cc1nncn1C)c1cccc(NC(=O)c2cc(C(=O)N3CC[C@@](C)(N)C3)ccn2)c1` [Compound 230, 4-((R)-3-amino-3-methylpyrrolidine-1-carbonyl)-N-(3-((R)-1-(4-methyl-4H-1,2,4-triazol-3-yl)propan-2-yl)phenyl)picolinamide 2,2,2-trifluoroacetate] the same measures were at most 10 µM and 3 to 10 µM.
For `C[C@H](Cc1nncn1C)c1cccc(NC(=O)c2cc(C(=O)N3CC(CO)C3)ccn2)c1` [Compound 232, 4-[3-(hydroxymethyl)azetidine-1-carbonyl]-N-[3-[(2R)-1-(4-methyl-4H-1,2,4-triazol-3-yl)propan-2-yl]phenyl]pyridine-2-carboxamide] the same measures were at most 10 µM and 1 to 3 µM.
For `C[C@H](Cc1nncn1C)c1cccc(NC(=O)c2cc(C(=O)N3CCC4(CCO4)C3)ccn2)c1` (stereo partly drawn) [Compound 237, N-[3-[(2R)-1-(4-methyl-4H-1,2,4-triazol-3-yl)propan-2-yl]phenyl]-4-[1-oxa-6-azaspiro[3.4]octane-6-carbonyl]pyridine-2-carboxamide], the IC50 in assay [1] was at most 10 µM; in assay [2], 3 to 10 µM.
With `C[C@H](Cc1ncco1)c1cccc(N2Cc3c(cccc3C(F)(F)F)C2=O)c1` [Compound 261, (R)-2-(3-(1-(oxazol-2-yl)propan-2-yl)phenyl)-4-(trifluoromethyl)isoindolin-1-one], the IC50 was at most 10 µM in assay [1] and 3 to 10 µM in assay [2].
As to `CC(Cc1nccn1C)c1cccc(N2Cc3c(cccc3C(F)(F)F)C2=O)c1` (stereo not drawn) [Compound 267, 2-(3-(1-(1-methyl-1H-imidazol-2-yl)propan-2-yl)phenyl)-4-(trifluoromethyl)isoindolin-1-one], the IC50 in assay [1] is at most 10 µM; in assay [2], 3 to 10 µM.
On the same counts, the results for `CC(Cc1nocc1CO)c1cccc(N2Cc3c(cccc3C(F)(F)F)C2=O)c1` (stereo not drawn) [Compound 269, 2-(3-(1-(4-(hydroxymethyl)isoxazol-3-yl)propan-2-yl)phenyl)-4-(trifluoromethyl)isoindolin-1-one] are at most 10 µM and 1 to 3 µM.
For `C[C@H](Cc1n[nH]cc1CO)c1cccc(N2Cc3c(cccc3C(F)(F)F)C2=O)c1` [Compound 271b, (R)-2-(3-(1-(4-(hydroxymethyl)-1H-pyrazol-3-yl)propan-2-yl)phenyl)-4-(trifluoromethyl)isoindolin-1-one] the same measures were at most 10 µM and 1 to 3 µM.
Take `CC(Cc1nncn1C)c1cc(F)cc(N2Cc3c(cccc3C(F)(F)F)C2=O)c1` (stereo not drawn) [Compound 281]: the IC50 was at most 0.5 µM in assay [1] and 0.1 to 0.3 µM in assay [2].
As to `Cn1cnnc1CC(C)(C)c1cccc(NC(=O)c2ccnc(C(F)(F)F)n2)c1` [Compound 285, N-(3-(2-methyl-1-(4-methyl-4H-1,2,4-triazol-3-yl)propan-2-yl)phenyl)-2-(trifluoromethyl)pyrimidine-4-carboxamide], the IC50 in assay [1] was at most 0.5 µM; in assay [2], 0.1 to 0.3 µM.
For the compound `Cc1ccc(C(=O)Nc2cccc([C@H](C)[C@H](O)c3nncn3C)c2)nc1C1CC1` [Compound 288, Trans-6-cyclopropyl-N-(3-(1-hydroxy-1-(4-methyl-4H-1,2,4-triazol-3-yl)propan-2-yl)phenyl)-5-methylpicolinamide], the IC50 in assay [1] is at most 10 µM; in assay [2] it was 3 to 10 µM.
For `COC(Cc1nncn1C)c1cccc(N2Cc3c(cccc3C(F)(F)F)C2=O)c1` (stereo not drawn) [Compound 290, 2-(3-(1-methoxy-2-(4-methyl-4H-1,2,4-triazol-3-yl)ethyl)phenyl)-4-(trifluoromethyl)isoindolin-1-one] the same measures were at most 10 µM and 1 to 3 µM.
Regarding `CCOC(Cc1nncn1C)c1cccc(N2Cc3c(cccc3C(F)(F)F)C2=O)c1` (stereo not drawn) [Compound 291, 2-(3-(1-ethoxy-2-(4-methyl-4H-1,2,4-triazol-3-yl)ethyl)phenyl)-4-(trifluoromethyl)isoindolin-1-one], the IC50 in assay [1] is at most 10 µM; in assay [2], 3 to 10 µM.
For `Cn1cnnc1C(F)(F)[C@@](C)(F)c1cccc(N2Cc3c(cccc3C(F)(F)F)C2=O)c1` [Compound 296b, (S)-2-(3-(1,1,2-trifluoro-1-(4-methyl-4H-1,2,4-triazol-3-yl)propan-2-yl)phenyl)-4-(trifluoromethyl)isoindolin-1-one] the same measures were at most 10 µM and 3 to 10 µM.
For `Cn1cnnc1CC(C)(O)c1cccc(N2Cc3c(cccc3C(F)(F)F)C2=O)c1` (stereo not drawn) [Compound 297, 2-(3-(2-hydroxy-1-(4-methyl-4H-1,2,4-triazol-3-yl)propan-2-yl)phenyl)-4-(trifluoromethyl)isoindolin-1-one] the same measures were at most 10 µM and 3 to 10 µM.
On the same counts, the results for `C[C@@H]1CN(Cc2cc(C(=O)Nc3cccc(C4(Cc5nncn5C)COC4)c3)nc(C3CC3)c2)CCO1` [Compound 501, 6-cyclopropyl-N-(3-{3-[(4-methyl-1,2,4-triazol-3-yl)methyl]oxetan-3-yl}phenyl)-4-{[(2R)-2-methylmorpholin-4-yl]methyl}pyridine-2-carboxamide] are at most 0.1 µM and below 0.1 µM.
As for `Cc1cc(C(=O)Nc2cccc(C3(Cc4[nH]ncc4C)COC3)c2)nc(C2CC2)n1` [Compound 510, 2-cyclopropyl-6-methyl-N-(3-{3-[(4-methyl-1H-pyrazol-3-yl)methyl]oxetan-3-yl}phenyl)pyrimidine-4-carboxamide], the IC50 in assay [1] is at most 0.1 µM; in assay [2], below 0.1 µM.
On the same counts, the results for `Cc1cc(C(=O)Nc2cccc(C3=C(c4nncn4C)CCC3)c2)nc(C2CC2)n1` [Compound 518, 2-cyclopropyl-6-methyl-N-(3-(2-(4-methyl-4H-1,2,4-triazol-3-yl)cyclopent-1-en-1-yl)phenyl)pyrimidine-4-carboxamide] are at most 0.3 µM and 0.1 to 0.3 µM.
On the same counts, the results for `Cn1cnnc1CC1(c2cccc(N3Cc4c(cc(CN5CCOC(CCF)C5)cc4C(F)(F)F)C3=O)c2)COC1` (stereo not drawn) [Compound 521, 6-{[2-(2-fluoroethyl)morpholin-4-yl]methyl}-2-(3-{3-[(4-methyl-1,2,4-triazol-3-yl)methyl]oxetan-3-yl}phenyl)-4-(trifluoromethyl)-3H-isoindol-1-one] are at most 0.1 µM and below 0.1 µM.
